Tested on: 653999-131-R-J2-PDC complex spheroids, growth % test/control
Assay: Anticancer human tumor 653999-131-R-J2-PDC patient-derived lung adenocarcinoma cell line growth inhibition [AhR]
Settings: for IC50: curve of first compound; for viability, T/C: stronger effect = lower value
Excerpt: Multicellular complex tumor spheroid response to aryl hydrocarbon receptor antagonists in combination with a variety of drugs and investigational agents in selected tumor cell lines
The current study was undertaken to assess response to aryl hydrocarbon receptor antagonists in combination with standard-of-care drugs and investigational agents in solid tumor complex spheroid models. Complex spheroids include a stromal component modeled by human endothelial cells (HUVEC) and fibroblasts modeled by human mesenchymal stem cells (MSCs). The concentration ranges selected for each drug and investigational agent were based upon clinically achievable concentrations if the clinical Cmax of the agent was known.
Compounds. The drugs and investigational agents: BAY 2416964 (NSC825713), GNF351 (NSC835774), CH-223191 (NSC835775), CPI-455 (NSC825282), aza-TdCyd (NSC777586), decitabine (NSC127716), belinostat (NSC758774), entinostat (NSC756642), pevonedistat (NSC761192), tazemetostat (NSC777109), talazoparib (NSC765396), olaparib (NSC753686), selinexor (NSC780203), nedisertib (M3814, NSC802822), bortezomib (NSC756655), venetoclax (NSC766270), doxorubicin (NSC123127), elimusertib (BAY189344, NSC800525), ceralasertib (AZD6738, NSC777638), TAK-243 (NSC785004), alisertib (NSC759677), etoposide (NSC141540), topotecan (NSC609699), eribulin (NSC707389), gemcitabine (NSC613327), carboplatin (NSC241240), cisplatin (NSC119875), and SN-38 (NSC673596) were obtained from the National Cancer Institute (NCI) Developmental Therapeutics Program Chemical Repository (32). The FDA-approved anticancer drug set is available from the Developmental Therapeutics Program at https://dtp.cancer.gov/organization/dscb/obtaining/available plates.htm. […] The stock solutions were prepared in dimethyl sulfoxide (DMSO, Sigma-Aldrich, St. Louis, MO, cat. D2650), except for the platinum compounds which were prepared in saline (Quality Biological, Gaithersburg, MD, cat. 114-055-101), at 800-fold the tested concentration and stored at -70 degrees C prior to their use. All drugs and investigational agents were tested over a range starting from a high concentration at or near the clinical Cmax and decreasing in half-log increments. If the clinical Cmax for an agent had not been determined, the highest concentration tested was 10 microM (Table 1).
Cell Culture. All cells were maintained in an incubator at 37 degrees C and 5% CO2 with 95% humidity. The PDC lines were cultured according to standard operating procedures established by the NCI PDMR (https://pdmr.cancer.gov). Briefly, all PDCs were thawed and cultured in Matrigel-coated flasks prepared with a working solution of 1X Ham's F-12 nutrient mix, without supplementation (Invitrogen, Waltham, MA, cat. 11765054), 100 U/mL penicillin-streptomycin (Invitrogen, cat. 15140122), and 2.5% Matrigel (Corning Inc., Corning, NY, cat. 354248) for the first three passages. All PDCs were cultured in complete DMEM/F-12 media containing advanced DMEM/F-12 (Invitrogen, cat. 12634028), 4.9% defined fetal bovine serum, heat inactivated (HyClone Laboratories Inc., Logan, UT, cat. SH30070.03HI), 389 ng/mL hydrocortisone (Sigma-Aldrich, cat. H4001), 9.7 ng/mL human EGF recombinant protein (Invitrogen, cat. PHG0313), 23.4 microg/mL adenine (Sigma-Aldrich, cat. A2786), 97.3 U/mL penicillin-streptomycin (Invitrogen, cat. 15140122), 1.9 mM L-glutamine (Invitrogen, cat. 25030081), and 9.7 microM Y-27632 dihydrochloride (Tocris Bioscience, Bristol, United Kingdom, cat. 1254). The PDCs were cultured in complete DMEM/F12 media without 10 microM Y-27632 dihydrochloride for at least two passages prior to the screen. The established cell lines NCI-H1341 and […] were cultured in DMEM/F-12, HEPES (Invitrogen, cat. 11330032), 5% defined fetal bovine serum (HyClone Laboratories Inc., cat. SH30070.03), ITS premix universal culture supplement [insulin (5 microg/mL), transferrin (5 microg/mL), and selenious acid (5 ng/mL)] […]
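Note: spheroids exposed to agents for seven days.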

Question: For `CCN(c1cc(-c2ccc(CN3CCOCC3)cc2)cc(C(=O)NCc2c(C)cc(C)[nH]c2=O)c1C)C1CCOCC1` + CC(CO)NC(=O)c1cc(-c2ccc(Cl)cc2)nn(-c2cnn(C)c2)c1=O, which IC50 (second compound 0.1 µM) is on record?
Answer: The IC50 was over 3 µM.

Question: What about the IC50 (second compound 0.316 µM) of the same compound?
Answer: The IC50 was over 3 µM.

Question: What about the IC50 (second compound 1 µM) of the same compound?
Answer: Its IC50 is over 3 µM.

Question: And the IC50 (second compound 3.16 µM)?
Answer: Its IC50 is over 3 µM.

Question: What about the IC50 (second compound 10 µM) of the same compound?
Answer: Its IC50 is over 3 µM.

Question: What about the viability, T/C (second compound 0.1 µM, first compound 0.00949 µM) of the same compound?
Answer: Its viability, T/C is 112%.

Question: And the viability, T/C (second compound 0.1 µM, first compound 0.03 µM)?
Answer: The viability, T/C was 97.6%.

Question: And the viability, T/C (second compound 0.1 µM, first compound 0.0949 µM)?
Answer: The viability, T/C was 120%.

Question: And the viability, T/C (second compound 0.1 µM, first compound 0.3 µM)?
Answer: Its viability, T/C is 95.9%.

Question: And the viability, T/C (second compound 0.1 µM, first compound 0.949 µM)?
Answer: Its viability, T/C is 93.9%.

Question: What about the viability, T/C (second compound 0.1 µM, first compound 3 µM) of the same compound?
Answer: The viability, T/C was 90%.

Question: And the viability, T/C (second compound 0.316 µM, first compound 0.00949 µM)?
Answer: Its viability, T/C is 119%.

Question: What about the viability, T/C (second compound 0.316 µM, first compound 0.03 µM) of the same compound?
Answer: Its viability, T/C is 107%.

Question: What about the viability, T/C (second compound 0.316 µM, first compound 0.0949 µM) of the same compound?
Answer: The viability, T/C was 101%.

Question: What about the viability, T/C (second compound 0.316 µM, first compound 0.3 µM) of the same compound?
Answer: The viability, T/C was 94.6%.

Question: What about the viability, T/C (second compound 0.316 µM, first compound 0.949 µM) of the same compound?
Answer: Its viability, T/C is 101%.

Question: What about the viability, T/C (second compound 0.316 µM, first compound 3 µM) of the same compound?
Answer: The viability, T/C was 94.1%.

Question: And the viability, T/C (second compound 1 µM, first compound 0.00949 µM)?
Answer: Its viability, T/C is 115%.

Question: And the viability, T/C (second compound 1 µM, first compound 0.03 µM)?
Answer: Its viability, T/C is 134%.

Question: And the viability, T/C (second compound 1 µM, first compound 0.0949 µM)?
Answer: The viability, T/C was 115%.

Question: And the viability, T/C (second compound 1 µM, first compound 0.3 µM)?
Answer: The viability, T/C was 114%.

Question: And the viability, T/C (second compound 1 µM, first compound 0.949 µM)?
Answer: The viability, T/C was 105%.

Question: What about the viability, T/C (second compound 1 µM, first compound 3 µM) of the same compound?
Answer: The viability, T/C was 102%.

Question: And the viability, T/C (second compound 3.16 µM, first compound 0.00949 µM)?
Answer: Its viability, T/C is 112%.

Question: What about the viability, T/C (second compound 3.16 µM, first compound 0.03 µM) of the same compound?
Answer: The viability, T/C was 113%.

Question: And the viability, T/C (second compound 3.16 µM, first compound 0.0949 µM)?
Answer: Its viability, T/C is 119%.

Question: And the viability, T/C (second compound 3.16 µM, first compound 0.3 µM)?
Answer: The viability, T/C was 114%.

Question: What about the viability, T/C (second compound 3.16 µM, first compound 0.949 µM) of the same compound?
Answer: The viability, T/C was 106%.

Question: And the viability, T/C (second compound 3.16 µM, first compound 3 µM)?
Answer: Its viability, T/C is 99.6%.

Question: What about the viability, T/C (second compound 10 µM, first compound 0.00949 µM) of the same compound?
Answer: The viability, T/C was 111%.

Question: What about the viability, T/C (second compound 10 µM, first compound 0.03 µM) of the same compound?
Answer: Its viability, T/C is 117%.

Question: And the viability, T/C (second compound 10 µM, first compound 0.0949 µM)?
Answer: Its viability, T/C is 130%.

Question: What about the viability, T/C (second compound 10 µM, first compound 0.3 µM) of the same compound?
Answer: Its viability, T/C is 114%.

Question: And the viability, T/C (second compound 10 µM, first compound 0.949 µM)?
Answer: The viability, T/C was 105%.

Question: What about the viability, T/C (second compound 10 µM, first compound 3 µM) of the same compound?
Answer: Its viability, T/C is 96.1%.

Question: What does the source list for `Nc1ccn(C2OC(CO)C(O)C2(F)F)c(=O)n1` (stereo not given) + CC(CO)NC(=O)c1cc(-c2ccc(Cl)cc2)nn(-c2cnn(C)c2)c1=O?
Answer: IC50 (second compound 0.1 µM): 1.94 µM; IC50 (second compound 0.316 µM): 3.06 µM; IC50 (second compound 1 µM): 4.74 µM; IC50 (second compound 3.16 µM): 1.6 µM; IC50 (second compound 10 µM): 6.31 µM; viability, T/C (second compound 0.1 µM, first compound 0.0316 µM): 65.4%; viability, T/C (second compound 0.1 µM, first compound 0.1 µM): 66.8%; viability, T/C (second compound 0.1 µM, first compound 0.316 µM): 61.2%; viability, T/C (second compound 0.1 µM, first compound 1 µM): 48%; viability, T/C (second compound 0.1 µM, first compound 3.16 µM): 48.4%; viability, T/C (second compound 0.1 µM, first compound 10 µM): 42.9%; viability, T/C (second compound 0.316 µM, first compound 0.0316 µM): 73.9%; viability, T/C (second compound 0.316 µM, first compound 0.1 µM): 69.8%; viability, T/C (second compound 0.316 µM, first compound 0.316 µM): 62.2%; viability, T/C (second compound 0.316 µM, first compound 1 µM): 58.4%; viability, T/C (second compound 0.316 µM, first compound 3.16 µM): 46.5%; viability, T/C (second compound 0.316 µM, first compound 10 µM): 45.3%; viability, T/C (second compound 1 µM, first compound 0.0316 µM): 67.5%; viability, T/C (second compound 1 µM, first compound 0.1 µM): 69.9%; viability, T/C (second compound 1 µM, first compound 0.316 µM): 58.6%; viability, T/C (second compound 1 µM, first compound 1 µM): 58.1%; viability, T/C (second compound 1 µM, first compound 3.16 µM): 50.4%; viability, T/C (second compound 1 µM, first compound 10 µM): 47.1%; viability, T/C (second compound 3.16 µM, first compound 0.0316 µM): 78.1%; viability, T/C (second compound 3.16 µM, first compound 0.1 µM): 74%; viability, T/C (second compound 3.16 µM, first compound 0.316 µM): 63.7%; viability, T/C (second compound 3.16 µM, first compound 1 µM): 55.7%; viability, T/C (second compound 3.16 µM, first compound 3.16 µM): 42.7%; viability, T/C (second compound 3.16 µM, first compound 10 µM): 40.9%; viability, T/C (second compound 10 µM, first compound 0.0316 µM): 96.5%; viability, T/C (second compound 10 µM, first compound 0.1 µM): 76.8%; viability, T/C (second compound 10 µM, first compound 0.316 µM): 64.4%; viability, T/C (second compound 10 µM, first compound 1 µM): 58%; viability, T/C (second compound 10 µM, first compound 3.16 µM): 51.7%; viability, T/C (second compound 10 µM, first compound 10 µM): 48.4%
